# Data reported in US20240317708A1, “INHIBITORS OF TRANSGLUTAMINASES” (ZEDIRA GMBH, priority 2021, published 2024).
# Tests used:
# [1] = Caco-2 permeability assay (CacoReady kit); type: in vitro ADME; details: human
# How it was run: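 Read-out is the permeability coefficient Papp, obtained from transport across a Caco-2 barrier prepared from a ready-to-use kit following the manufacturer's instructions.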
# [2] = Log D shake flask method (octanol / PBS pH 7.4, HPLC); type: physicochemical; details: octanol/phosphate-buffered saline (PBS); octanol / PBS pH 7.4, shake flask
# Description: In order to classify the inventive compounds according to their lipophilicity, Log D values (distribution coefficient) were determined by means of the well-established shake flask method, measuring the partition of a compound between an octanol and phosphate-buffered saline (PBS, pH 7.4) by HPLC.
# [3] = target: T1, recombinant human transglutaminase 2 (Homo sapiens, UniProt P21980); test: Transglutaminase assay (dansylcadaverine incorporation into dimethylcasein, DCC-assay); type: biochemical; details: recombinant human TG2 10 nM, dansylcadaverine/dimethylcasein, 37° C.
# T1 construct: purchased Zedira T022
# T1 sequence (P21980 1-687): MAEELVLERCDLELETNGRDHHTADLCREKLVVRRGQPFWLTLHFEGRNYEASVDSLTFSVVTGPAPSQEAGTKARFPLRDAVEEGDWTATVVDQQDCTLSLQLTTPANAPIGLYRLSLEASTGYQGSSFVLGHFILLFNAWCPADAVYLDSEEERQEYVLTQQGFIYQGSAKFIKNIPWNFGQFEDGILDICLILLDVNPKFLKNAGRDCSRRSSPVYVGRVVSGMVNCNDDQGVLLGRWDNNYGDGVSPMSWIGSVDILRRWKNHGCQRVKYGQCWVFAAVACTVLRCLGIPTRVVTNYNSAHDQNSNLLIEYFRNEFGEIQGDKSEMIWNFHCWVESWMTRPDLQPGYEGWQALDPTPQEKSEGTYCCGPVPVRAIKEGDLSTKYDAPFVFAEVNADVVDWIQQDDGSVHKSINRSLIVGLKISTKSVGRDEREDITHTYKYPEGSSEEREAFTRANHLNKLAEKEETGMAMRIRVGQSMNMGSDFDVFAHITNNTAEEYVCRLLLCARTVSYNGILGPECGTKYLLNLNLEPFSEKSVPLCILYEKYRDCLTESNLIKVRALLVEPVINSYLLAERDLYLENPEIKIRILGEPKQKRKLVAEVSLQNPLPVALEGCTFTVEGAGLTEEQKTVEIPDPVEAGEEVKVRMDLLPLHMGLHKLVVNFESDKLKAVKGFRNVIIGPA
# How it was run: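 IC50 derived from fluorescence slope between 20 and 30 min (λex 330 nm, λem 500 nm, 37 °C), expressed relative to a 2% DMSO control. Reaction: 10 nM recombinant human TG2, 4 μM dimethylcasein, 16.7 μM dansylcadaverine, 10 mM CaCl2 and glutathione, pH 8.0.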
Compound,Papp [1],logD [2],IC50 [3]
"COC(=O)/C=C/CC[C@H](NC(=O)c1oc2ccccc2c1C)C(=O)Nc1cccn(CC(=O)NC2C3CC4CC2CC(Cl)(C4)C3)c1=O (stereo partly drawn) [III-40, (S,E)-methyl 7-(1-(2-(5-chloroadamantan-2-amino)-2-oxoethyl)-2-oxo-1,2-dihydropyridin-3-ylamino)-6-(3-methylbenzofuran-2-carboxamido)-7-oxohept-2-enoate]",1 to 10 ×10⁻⁶ cm/s,3 to 5,< 25 nM
"COC(=O)/C=C/CC[C@H](NC(=O)c1cc2c(F)c(F)ccc2[nH]1)C(=O)Nc1cccn(CC(=O)NC2C3CC4CC(C3)CC2C4)c1=O (stereo partly drawn) [III-9, (S,E)-methyl 6-(4,5-difluoro-1H-indole-2-carboxamido)-7-(1-(2-(2-adamantylamino)-2-oxoethyl)-2-oxo-1,2-dihydropyridin-3-ylamino)-7-oxohept-2-enoate]",< 1 ×10⁻⁶ cm/s,3 to 5,< 25 nM
"COC(=O)/C=C/CC[C@H](NC(=O)c1oc2ccccc2c1C)C(=O)Nc1cccn(CC(=O)NC23CC4CC5C2C[C@@H]2C[C@H]5C(C4)[C@H]3C2)c1=O [III-73, (S,E)-methyl 7-(1-(2-(diamantane-1-amino)-2-oxoethyl)-2-oxo-1,2-dihydropyridin-3-ylamino)-6-(3-methylbenzofuran-2-carboxamido)-7-oxohept-2-enoate]",1 to 10 ×10⁻⁶ cm/s,3 to 5,< 25 nM
"COC(=O)/C=C/CC[C@H](NC(=O)c1cn[nH]n1)C(=O)Nc1cccn(CC(=O)NC2C3CC4CC(C3)CC2C4)c1=O (stereo partly drawn) [III-101, (S,E)-methyl 7-(1-(2-(2-adamantylamino)-2-oxoethyl)-2-oxo-1,2-dihydropyridin-3-ylamino)-7-oxo-6-(2H-1,2,3-triazole-4-carboxamido)hept-2-enoate]",< 1 ×10⁻⁶ cm/s,1 to 3,25 to 250 nM
"Cn1cncc1C(=O)N[C@@H](CC/C=C/S(C)(=O)=O)C(=O)Nc1cccn(CC(=O)NC2C3CC4CC(C3)CC2C4)c1=O (stereo partly drawn) [III-100, (S,E)-N-(1-(1-(2-(2-adamantylamino)-2-oxoethyl)-2-oxo-1,2-dihydropyridin-3-ylamino)-6-(methylsulfonyl)-1-oxohex-5-en-2-yl)-1-methyl-1H-imidazole-5-carboxamide]",< 1 ×10⁻⁶ cm/s,1 to 3,25 to 250 nM
"COC(=O)/C=C/CC[C@H](NC(=O)c1oc2ccccc2c1C)C(=O)Nc1cccn(CC(=O)NC23CC4CC(CC(C4)C2)C3)c1=O [III-45, (S,E)-methyl 7-(1-(2-(1-adamantylamino)-2-oxoethyl)-2-oxo-1,2-dihydropyridin-3-ylamino)-6-(3-methylbenzofuran-2-carboxamido)-7-oxohept-2-enoate]",1 to 10 ×10⁻⁶ cm/s,3 to 5,25 to 250 nM
"COC(=O)/C=C/CC[C@H](NC(=O)c1cc(Cl)sc1Cl)C(=O)Nc1cccn(CC(=O)NC23CC4(C)CC(C)(CC(C)(C4)C2)C3)c1=O [III-94, (S,E)-methyl 6-(2,5-dichlorothiophene-3-carboxamido)-7-(1-(2-(3,5,7-trimethyl-1-adamantylamino)-2-oxoethyl)-2-oxo-1,2-dihydropyridin-3-ylamino)-7-oxohept-2-enoate]",1 to 10 ×10⁻⁶ cm/s,3 to 5,< 25 nM
"COC(=O)/C=C/CC[C@H](NC(=O)c1cnccn1)C(=O)Nc1cccn(CC(=O)NC2C3CC4CC(C3)CC2C4)c1=O (stereo partly drawn) [III-24, (S,E)-methyl 7-(1-(2-(2-adamantylamino)-2-oxoethyl)-2-oxo-1,2-dihydropyridin-3-ylamino)-7-oxo-6-(pyrazine-2-carboxamido)hept-2-enoate]",< 1 ×10⁻⁶ cm/s,1 to 3,25 to 250 nM
"COC(=O)/C=C/CC[C@H](NC(=O)c1cc(Cl)c(Cl)s1)C(=O)Nc1cccn(CC(=O)NC2C3CC4CC(C3)CC2C4)c1=O (stereo partly drawn) [III-20, (S,E)-methyl 6-(4,5-dichlorothiophene-2-carboxamido)-7-(1-(2-(2-adamantylamino)-2-oxoethyl)-2-oxo-1,2-dihydropyridin-3-ylamino)-7-oxohept-2-enoate]",1 to 10 ×10⁻⁶ cm/s,3 to 5,< 25 nM
"COC(=O)/C=C/CC[C@H](NC(=O)C1CN2CCC1CC2)C(=O)Nc1cccn(CC(=O)NC2C3CC4CC(C3)CC2C4)c1=O (stereo partly drawn) [III-32, (S,E)-methyl 7-(1-(2-(2-adamantylamino)-2-oxoethyl)-2-oxo-1,2-dihydropyridin-3-ylamino)-7-oxo-6-(quinuclidine-3-carboxamido)hept-2-enoate]",< 1 ×10⁻⁶ cm/s,3 to 5,25 to 250 nM
"COC(=O)/C=C/CC[C@H](NC(=O)c1cn(C)nn1)C(=O)Nc1cccn(CC(=O)NC2C3CC4CC(C3)CC2C4)c1=O (stereo partly drawn) [III-103, (S,E)-methyl 7-(1-(2-(2-adamantylamino)-2-oxoethyl)-2-oxo-1,2-dihydropyridin-3-ylamino)-6-(1-methyl-1H-1,2,3-triazole-4-carboxamido)-7-oxohept-2-enoate]",1 to 10 ×10⁻⁶ cm/s,1 to 3,25 to 250 nM
"COC(=O)/C=C/CC[C@H](NC(=O)c1sc(C(F)(F)F)nc1C)C(=O)Nc1cccn(CC(=O)NC23CC4(C)CC(C)(CC(C)(C4)C2)C3)c1=O [III-95, (S,E)-methyl 7-(1-(2-(3,5,7-trimethyl-1-adamantylamino)-2-oxoethyl)-2-oxo-1,2-dihydropyridin-3-ylamino)-6-(4-methyl-2-(trifluoromethyl)thiazole-5-carboxamido)-7-oxohept-2-enoate]",1 to 10 ×10⁻⁶ cm/s,3 to 5,< 25 nM
"COC(=O)/C=C/CC[C@H](NC(=O)c1cccnc1)C(=O)Nc1cccn(CC(=O)NC2C3CC4CC(C3)CC2C4)c1=O (stereo partly drawn) [III-83, (S,E)-methyl 7-(1-(2-(2-adamantylamino)-2-oxoethyl)-2-oxo-1,2-dihydropyridin-3-ylamino)-6-(nicotinamido)-7-oxohept-2-enoate]",< 1 ×10⁻⁶ cm/s,3 to 5,< 25 nM

# Further lines, results first:
Papp [1],logD [2],IC50 [3],Compound
< 1 ×10⁻⁶ cm/s,< 1,25 to 250 nM,"C=CCNC(=O)/C=C/CC[C@H](NC(=O)c1ccc2cnccc2n1)C(=O)Nc1cccn(CC(=O)NC23CC(C2)C3)c1=O [III-150, (S,E)-N1-allyl-N7-(1-(2-(bicyclo[1.1.1]pentan-1-ylamino)-2-oxoethyl)-2-oxo-1,2-dihydropyridin-3-yl)-6-(1,6-naphthyridine-2-carboxamido)hept-2-enediamide]"
< 1 ×10⁻⁶ cm/s,< 1,250 to 1500 nM,"COC(=O)/C=C/CC[C@H](NC(=O)c1cnc(NC(C)=O)s1)C(=O)Nc1cccn(CC(=O)NC23CC(C2)C3)c1=O [III-162, (S,E)-methyl 6-(2-acetamidothiazole-5-carboxamido)-7-(1-(2-(bicyclo[1.1.1]pentan-1-ylamino)-2-oxoethyl)-2-oxo-1,2-dihydropyridin-3-ylamino)-7-oxohept-2-enoate]"
1 to 10 ×10⁻⁶ cm/s,3 to 5,< 25 nM,"COC(=O)/C=C/CC[C@H](NC(=O)c1cc(Cl)sc1Cl)C(=O)Nc1cccn(CC(=O)NC23CC4CC(C)(CC(C)(C4)C2)C3)c1=O [III-124, (S,E)-methyl 6-(2,5-dichlorothiophene-3-carboxamido)-7-(1-(2-(3,5-dimethyladamantane-1-amino)-2-oxoethyl)-2-oxo-1,2-dihydropyridin-3-ylamino)-7-oxohept-2-enoate]"
< 1 ×10⁻⁶ cm/s,1 to 3,< 25 nM,"COC(=O)/C=C/CC[C@H](NC(=O)c1ccnn1C)C(=O)Nc1cccn(CC(=O)N[C@@H]2C[C@H]3CC[C@@H]2C3)c1=O [III-111, (S,E)-methyl 7-(1-(2-((1R,2R,4S)-bicyclo[2.2.1]heptan-2-ylamino)-2-oxoethyl)-2-oxo-1,2-dihydropyridin-3-ylamino)-6-(1-methyl-1H-pyrazole-5-carboxamido)-7-oxohept-2-enoate]"
< 1 ×10⁻⁶ cm/s,< 1,< 25 nM,"COC(=O)/C=C/CC[C@H](NC(=O)c1cnnn1C)C(=O)Nc1cccn(CC(=O)N[C@@H]2C[C@@H]3CC[C@H]2C3)c1=O [III-116, (S,E)-methyl 7-(1-(2-((1S,2R,4R)-bicyclo[2.2.1]heptan-2-ylamino)-2-oxoethyl)-2-oxo-1,2-dihydropyridin-3-ylamino)-6-(1-methyl-1H-1,2,3-triazole-5-carboxamido)-7-oxohept-2-enoate]"
< 1 ×10⁻⁶ cm/s,< 1,25 to 250 nM,"COC(=O)/C=C/CC[C@H](NC(=O)c1nncs1)C(=O)Nc1cccn(CC(=O)NC23CC(C2)C3)c1=O [III-171, (S,E)-methyl 7-(1-(2-(bicyclo[1.1.1]pentan-1-ylamino)-2-oxoethyl)-2-oxo-1,2-dihydropyridin-3-ylamino)-7-oxo-6-(1,3,4-thiadiazole-2-carboxamido)hept-2-enoate]"
